Data on 11 molecules can be found in patent US20250051407A1, “De novo designed sequence-specific DNA binding proteins” (University of Washington, priority 2023, published 2025).

This assay deals with 13 unique dsDNA targets. The experiment in a line: All-by-all yeast surface display screen of DBP design hits. The settings on record: for Target sequence preference: 13 unique dsDNA targets; for Number of the 13 tested DNA target sequences preferentially bound: including designed target sequence; for Binding specificity versus design models: all-by-all screen with Rosetta-predicted motifs. In kind it is binding. The procedure: And an all-by-all screen of DBP design hits to 13 unique dsDNA targets was performed (FIG. 4, table 2). […] To try to understand these observed binding preferences, each tested DNA sequence was threaded onto each design complex model at all possible base pair alignments, the alternative complex models were relaxed with Rosetta™, and the model with the most favorable Rosetta™ ΔΔG was selected.
Saccharomyces cerevisiae EBY100 strain cultures were grown in C-Trp-Ura medium supplemented with 2% (w/v) glucose. For induction of expression, yeast cells were centrifuged at 6,000 g for 1 min and resuspended in SGCAA medium supplemented with 0.2% (w/v) glucose at the cell density of 1×10^7 cells per ml and induced at 30° C. for 16-24 h. Cells were washed with PBSF (PBS with 1% (w/v) BSA) and labeled with biotinylated targets using two labeling methods: with-avidity and without-avidity labeling. For the with-avidity method, the cells were incubated with biotinylated target, together with anti-c-Myc fluorescein isothiocyanate (FITC, Miltenyi Biotech) and streptavidin-phycoerythrin (SAPE, ThermoFisher). The concentration of SAPE in the with-avidity method was used at one-quarter of the concentration of the biotinylated targets. For the without-avidity method, the cells were first incubated with biotinylated targets, washed and secondarily labeled with SAPE and FITC.
For yeast display characterization of individual designs, including competition assays, DNA sequences encoding the proteins of interest were purchased as Integrated DNA Technologies (IDT) E-Blocks™, transformed into yeast cells, and incubated in 96 well culture plates. Labeling with biotinylated dsDNA targets and SAPE/FITC was performed in a 96 well plate format. For yeast display competition assays, labeling was performed without avidity using 1 μM biotinylated dsDNA duplex oligos and an excess of 8 μM non-biotinylated competitor dsDNA duplex oligos. […] Flow cytometry analysis was performed with an Attune NxT™ flow cytometer with autosampler. Flow cytometry data analysis was performed using custom python code and the CytoFlow™ python package. For each individual sample, gating of the expression population was performed using the CytoFlow™ Gaussian Mixture Model and the ratio of SAPE channel intensity to FITC channel intensity (binding signal/expression signal) was calculated for all gated expression events of the sample.

“DBP44: designed DNA-binding protein, SEQ ID NO: 18, DNA target G (KEERVLAALEAHPWSTLAEIAELTGLSRSTVSRILSRLRKEGKCDSRREGRKVRYWLVRR)”: the Target sequence preference entry is “bound to most of the targets”.

For “DBP51: designed DNA-binding protein, SEQ ID NO: 25, DNA target E (MEADPAVVFGRRLRAARRAKGLTQAELAERAGLGQGTISRYEKGRTLPSPEQVEKLLAAL)”, the “Binding specificity versus design models” value was “bound with specificity closely consistent with the design models”. Further, the “Number of the 13 tested DNA target sequences preferentially bound” value (1 μM dsDNA with avidity) is on record as “less than 3”. For the molecule “DBP83: designed DNA-binding protein, SEQ ID NO: 43, DNA target A (PREREILRLLAEGKNAWEIAQILNISVRTVRNHLRNAMRKLGARNRVQAVARALRLG)”, the “Number of the 13 tested DNA target sequences preferentially bound” value (1 μM dsDNA with avidity) is given as “less than 3”. For the molecule “DBP69: designed DNA-binding protein, SEQ ID NO: 38, DNA target C (MKEEGRKLKELRERLGLTQAELAEALGLGQSTISRLERGRKEISPEVWEKALALLE)”, the “Binding specificity versus design models” value is reported as “bound with specificity closely consistent with the design models”. Besides, where the note is “1 μM dsDNA with avidity”, the “Number of the 13 tested DNA target sequences preferentially bound” value was “less than 3”. Regarding “DBP23: designed DNA-binding protein, SEQ ID NO: 9, DNA target B (PLAELGKAIKEARKRKGLTQAEVAKAAGVSRATVQRLELGKAKSIRPDKLRAILEVVGL)”, the Target sequence preference entry was “bound to most of the targets”. Same read-out and setting: to “DBP52: designed DNA-binding protein, SEQ ID NO: 26, DNA target E (RPLTPAEVFGRELRRLRRAAGLTQAELAERAGIGQGTVSRYEHGRRLPSPEEQERLLAAL)” belongs “strong preference for 2 or 3 of the sequence targets”. With “DBP90: designed DNA-binding protein, SEQ ID NO: 49, DNA target A (NKYQLSLLESAFQSNRYPDISQRATLASQTGLPERRIKIWFQNRRQRWKRKK)”, where the note is “yeast surface display, 1 μM dsDNA with avidity”, the “Binding to initial design target” value is reported as “bound weakly”. The “Binding to alternate target sequence” value (yeast surface display, 1 μM dsDNA with avidity, alternate target H (DBP90), D (DBP48), C (DBP57)) is given as “strongly”.

B1: DBP43: designed DNA-binding protein, SEQ ID NO: 17, DNA target G (protein)
chain: MEELKKLLESGDPKLQGEAVKKIREKLGLTQREFGKKIGVGQAKVSRIEAGKIKLTPELKEKILE
Regarding B1, the “Binding specificity versus design models” value was “bound with specificity closely consistent with the design models”.

B2: DBP5: designed DNA-binding protein, SEQ ID NO: 3, DNA target A (protein)
chain: GFGKAVKAKRAELGLTQAEFAERAGLSRRTIIRIEQGKVKATSTTAEKIAAALGTTVQELEQA
In the case of B2, the “Binding specificity versus design models” value is reported as “bound with specificity closely consistent with the design models”.

B3: DBP89: designed DNA-binding protein, SEQ ID NO: 48, DNA target A (protein)
chain: SPAAFDKLTARELAVARLVAQGLPNREIAAALHISPRAVEAHLRKIYRKLGIRRRRELAALLA
B3: the Target sequence preference entry is “bound to most of the targets”.

B4: DBP47: designed DNA-binding protein, SEQ ID NO: 21, DNA target D (protein)
chain: MTPEERERAKEIGREIRELRRERGLTQRELADLLGVSRSTVSDIESGRRLPSEELLRRIREILGV
In the case of B4, the “Binding specificity versus design models” value was “bound with specificity closely consistent with the design models”. Where the note is “1 μM dsDNA with avidity”, the “Number of the 13 tested DNA target sequences preferentially bound” value is recorded as “less than 3”.
